From patent US9808426B2, “Ternary mixture formulations” (priority 2011, dated 2017)

Tests used:
[1] = In vivo pharmacokinetic analysis after oral administration to jugular vein-cannulated rats; conditions: fenofibrate 145 mg/70 kg, plasma fenofibric acid
Procedure: The study was performed on jugular vein-cannulated rats weighing from 200 to 250 gm (n=4). […] Blood samples were collected at various time intervals over a 48 hour period after administration. The samples were collected into heparinized tubes through the jugular vein cannulation, centrifuged at 5000 rpm for 5 minutes. Each 50 μl plasma sample was treated with 10 μl of 50% methanol and 10 μl of an internal standard (Indomethacin), and then mixed by vortexing for 30 seconds. To that mixture, 200 μl of acetonitrile was added, followed by one minute of vortexing, centrifugation at 14,000 rpm for five minutes. […] Indomethacin was used as an internal standard for the LCMS analyis. Standard non-compartmental pharmacokinetic parameters were calculated. Briefly, noncompartmental pharmacokinetic analysis is dependent on estimation of total drug exposure. Total drug exposure is most often estimated by area under the curve (AUC) using the trapezoidal rule (numerical integration) method. Due to the dependence on the length of ‘x’ in the trapezoidal rule, the area estimation is dependent on the blood/plasma sampling schedule. That is, the closer time points are, the closer the trapezoids reflect the actual shape of the concentration-time curve.

[2] = In vitro dissolution, USP Type II apparatus, simulated gastric fluid pH 1.2 without enzymes; type: physicochemical; conditions: itraconazole 100 mg, 900 ml simulated gastric fluid pH 1.2, 100 rpm, 37°C
Procedure: The dissolution profile of pure itraconazole was compared to the dissolution profile itraconazole from the free-flowing powder formulation that was made by the process described in Example 3. The amount of free flowing powder formulation used in the dissolution studies was equivalent to amount of the formulation containing 100 mg of itraconazole. The amount of pure itraconazole used as a control in the studies was also 100 mg. […] The analysis was performed using a USP Type II dissolution apparatus with the paddle speed and temperature maintained at 100 rpm and 37±0.5° C. Three ml aliquots were removed at 10, 20, 30, 45 and 60 minute intervals. Subsequently, the amount of itraconazole in each of the aliquots was determined by using an HP Agilent® 1100 series HPLC system (Agilent Technologies, Inc., Santa Clara, Calif.). The mobile phase solution used in the HPLC system consisted of 65% acetonitrile and 35% 10 mM potassium dihydrogen phosphate. The solution was pumped through a Phenomenex® Luna 5 μm C-18 (dimension: 150 mm×4.6 mm) column (Phenomenex Corp., Torrance Calif.) at a flow rate of 1.3 ml/min. Itraconazole was detected at a wavelength of 263 nm. […] Subsequently, the amount of itraconazole in each of the aliquots was determined by using an HP Agilent® 1100 series HPLC system (Agilent Technologies, Inc., Santa Clara, Calif.). […] Itraconazole was detected at a wavelength of 263 nm. […]

For CCC(C)n1ncn(-c2ccc(N3CCN(c4ccc(OCC5COC(Cn6cncn6)(c6ccc(Cl)cc6Cl)O5)cc4)CC3)cc2)c1=O (centres unmarked) [pure drug, itraconazole], the AUMC0-t [1] was 436.7 mg·h/L, the CL [1] was 0.07 L/h and the Cmax [1] was 7.2 mg/L. The “MRT (mean residence time)” value [1] was 9.15 h, the t1/2 [1] was 7.18 h and the tmax [1] was 2.5 h. The “AUC0-t (AUC0-48)” value ([1]; over 48 hours) was 51 mg·h/L and the “drug release in 10 min” value [2] was “less than 1%”.
